The record followed here is patent publication US8648066B2 (Exelixis, Inc., priority 2009, dated 2014).

Bounds are passed on as bounds.

The target in this test is mTOR/GbL/Raptor (mTORC1) (Homo sapiens, UniProt P42345). Nature of the test: mTOR/GbL/Raptor (mTORC1) ELISA assay. The test is classed as biochemical. The following applies: phosphorylation of 4E-BP1; 0.2 nM mTORC1, 10 μM ATP; read-out: IC50 in this assay (mTORC1 ELISA). A digest of the protocol:
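ELISA read-out: phospho-4E-BP1 captured on Ni-chelate plates and detected with anti-phospho antibody plus HRP-anti-IgG luminescence. The kinase step ran 120 min at ambient temperature with 0.2 nM human mTORC1, 10 µM ATP, 50 nM His-4E-BP1, 10 mM MnCl2, pH 7.2 HEPES.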
(ELISA stands for enzyme-linked immunosorbent assay.)
As to `CCCc1c(C)nc(CN(C)C)nc1N1CCOc2ccc(-c3ccc4nc(C)[nH]c4c3)cc2C1` [Example 653, N,N-dimethyl-1-{4-methyl-6-[7-(2-methyl-1H-benzimidazol-6-yl)-2,3-dihydro-1,4-benzoxazepin-4(5H)-yl]-5-propylpyrimidin-2-yl}methanamine], the IC50 (usually the midpoint of a concentration-inhibition curve) lay within 250 to 1000 nM.
With `C=CCc1c(C)nc(CN(C)C)nc1N1CCOc2ccc(-c3ccc4nc(C)[nH]c4c3)cc2C1` [Example 654, N,N-dimethyl-1-{4-methyl-6-[7-(2-methyl-1H-benzimidazol-6-yl)-2,3-dihydro-1,4-benzoxazepin-4(5H)-yl]-5-prop-2-en-1-ylpyrimidin-2-yl}methanamine] the figure was 50 to 250 nM; with `Cc1nc2cc(-c3ccc4c(c3)CN(c3nc(CN(C)C)nc(C)c3CC(C)C)CCO4)ccc2[nH]1` [Example 655, N,N-dimethyl-1-{4-methyl-6-[7-(2-methyl-1H-benzimidazol-5-yl)-2,3-dihydro-1,4-benzoxazepin-4(5H)-yl]-5-(2-methylpropyl)pyrimidin-2-yl}methanamine], 250 to 1000 nM.
Turning to `COc1ccc(-c2ccc3c(c2)CN(c2nc(CN(C)C)nc(C)c2C(C)C)CCO3)cc1NS(C)(=O)=O` [Example 656, N-[5-(4-{2-[(dimethylamino)methyl]-6-methyl-5-(1-methylethyl)pyrimidin-4-yl}-2,3,4,5-tetrahydro-1,4-benzoxazepin-7-yl)-2-(methyloxy)phenyl]methane-sulfonamide], the half-maximal inhibitory concentration (IC50) fell in the range of 250 to 1000 nM.
With `CCCc1c(C)nc(CN(C)C)nc1N1CCOc2ccc(-c3cnc4sc(N)nc4c3)cc2C1` [Example 657, 6-(4-{2-[(dimethylamino)methyl]-6-methyl-5-propylpyrimidin-4-yl}-2,3,4,5-tetrahydro-1,4-benzoxazepin-7-yl)[1,3]thiazolo[5,4-b]pyridin-2-amine] the figure was 50 to 250 nM; with `COc1ccc2c(N3CCOc4ccc(-c5ccc6[nH]cnc6c5)cc4C3)nc(CN(C)C)nc2c1` [Example 658, 1-{4-[7-(1H-benzimidazol-5-yl)-2,3-dihydro-1,4-benzoxazepin-4(5H)-yl]-7-(methyloxy)quinazolin-2-yl}-N,N-dimethylmethanamine], ≥ 2000 nM.
For `COc1ccc2c(N3CCOc4ccc(-c5ccc6[nH]c(C)nc6c5)cc4C3)nc(CN(C)C)nc2c1` [Example 659, N,N-dimethyl-1-{4-[7-(2-methyl-1H-benzimidazol-5-yl)-2,3-dihydro-1,4-benzxazepin-4(5H)-yl]-7-(methyloxy)quinazolin-2-yl}methanamine], the IC50 was in the range of 250 to 1000 nM.
For `COc1ccc2c(N3CCOc4ccc(-c5cnc6sc(N)nc6c5)cc4C3)nc(C)nc2c1` [Example 661, 6-{4-[2-methyl-7-(methyloxy)quinazolin-4-yl]-2,3,4,5-tetrahydro-1,4-benzoxazepin-7-yl}[1,3]thiazolo[5,4-b]pyridin-2-amine], the IC50 was 250 to 1000 nM.
For the compound `CCc1c(C)nc(CN(C)C)nc1N1CCOc2ccc(-c3cnc4sc(N)nc4c3)cc2C1` [Example 662, 6-(4-{2-[(dimethylamino)methyl]-5-ethyl-6-methylpyrimidin-4-yl}-2,3,4,5-tetrahydro-1,4-benzoxazepin-7-yl)[1,3]thiazolo[5,4-b]pyridin-2-amine], the IC50 lay within 50 to 250 nM.
Regarding `Cc1nc(CN(C)C)nc(N2CCOc3ccc(-c4cnc5sc(N)nc5c4)cc3C2)c1CC1CC1` [Example 663, 6-(4-{5-(cyclopropylmethyl)-2-[(dimethylamino)methyl]-6-methylpyrimidin-4-yl}-2,3,4,5-tetrahydro-1,4-benzoxazepin-7-yl)[1,3]thiazolo[5,4-b]pyridin-2-amine], the IC50 was in the range of 50 to 250 nM.
For the compound `COCCc1c(C)nc(CN(C)C)nc1N1CCOc2ccc(-c3ccc4nc(C)[nH]c4c3)cc2C1` [Example 664, N,N-dimethyl-1-{4-methyl-6-[7-(2-methyl-1H-benzimidazol-6-yl)-2,3-dihydro-1,4-benzoxazepin-4(5H)-yl]-5-[2-(methyloxy)ethyl]pyrimidin-2-yl}methanamine], the half-maximal inhibitory concentration (IC50) is 250 to 1000 nM.
The result for `Cc1nc(CN(C)C)nc(N2CCOc3ccc(-c4cnc5sc(N)nc5c4)cc3C2)c1CC(C)C` [Example 665, 6-(4-{2-[(dimethylamino)methyl]-6-methyl-5-(2-methylpropyl)pyrimidin-4-yl}-2,3,4,5-tetrahydro-1,4-benzoxazepin-7-yl)[1,3]thiazolo[5,4-b]pyridin-2-amine] reads 10 to 50 nM; that for `Cc1nc2cc(-c3ccc4c(c3)CN(c3nc(CN(C)C)nc(C)c3Br)CCO4)ccc2[nH]1` [Example 666, 1-{5-bromo-4-methyl-6-[7-(2-methyl-1H-benzimidazol-5-yl)-2,3-dihydro-1,4-benzoxazepin-4(5H)-yl]pyrimidin-2-yl}-N,N-dimethylmethanamine], ≥ 2000 nM; that for `COCCc1c(C)nc(CN(C)C)nc1N1CCOc2ccc(-c3cnc4sc(N)nc4c3)cc2C1` [Example 667, 6-(4-{2-[(dimethylamino)methyl]-6-methyl-5-[2-(methyloxy)ethyl]pyrimidin-4-yl}-2,3,4,5-tetrahydro-1,4-benzoxazepin-7-yl)[1,3]thiazolo[5,4-b]pyridin-2-amine], 50 to 250 nM.
For `Cc1nc2cc(-c3ccc4c(c3)CN(c3nc(C(C)N)nc5c3CC(C)(C)CC5)CCO4)ccc2[nH]1` (stereo not shown) [Example 668, 1-{6,6-dimethyl-4-[7-(2-methyl-1H-benzimidazol-5-yl)-2,3-dihydro-1,4-benzoxazepin-4(5H)-yl]-5,6,7,8-tetrahydroquinazolin-2-yl}ethanamine], the IC50 was ≤ 10 nM.
Take `Cc1nc2c(c(N3CCOc4ccc(-c5cnc6sc(N)nc6c5)cc4C3)n1)CC(C)(C)CC2` [Example 669, 6-[4-(2,6,6-trimethyl-5,6,7,8-tetrahydroquinazolin-4-yl)-2,3,4,5-tetrahydro-1,4-benzoxazepin-7-yl][1,3]thiazolo[5,4-b]pyridin-2-amine]: the half-inhibitory concentration (IC50) is ≤ 10 nM.
Take `C=CCc1c(C)nc(CN(C)C)nc1N1CCOc2ccc(-c3cnc4sc(N)nc4c3)cc2C1` [Example 670, 6-(4-{2-[(dimethylamino)methyl]-6-methyl-5-prop-2-en-1-ylpyrimidin-4-yl}-2,3,4,5-tetrahyhdro-1,4-benzoxazepin-7-yl)[1,3]thiazolo[5,4-b]pyridin-2-amine]: the IC50 was in the range of 10 to 50 nM.
With `Cc1nc(CN(C)C)nc(N2CCOc3ccc(-c4cnc5sc(N)nc5c4)cc3C2)c1C` [Example 671, 6-(4-{2-[(dimethylamino)methyl]-5,6-dimethylpyrimidin-4-yl}-2,3,4,5-tetrahydro-1,4-benzoxazepin-7-yl)[1,3]thiazolo[5,4-b]pyridin-2-amine] the figure was 250 to 1000 nM.
For the compound `Cc1nc2ccc(-c3ccc4c(c3)CN(c3nc(CN(C)C)nc(C)c3C)CCO4)cc2[nH]1` [Example 672, 1-{4,5-dimethyl-6-[7-(2-methyl-1H-benzimidazol-6-yl)-2,3-dihydro-1,4-benzoxazepin-4(5H)-yl]pyrimidin-2-yl}-N,N-dimethylmethanamine], the IC50 is ≥ 2000 nM.
For `Cc1nc(CN(C)C)nc(N2CCOc3ccc(-c4cnc5sc(N)nc5c4)cc3C2)c1Br` [Example 673, 6-(4-{5-bromo-2-[(dimethylamino)methyl]-6-methylpyrimidin-4-yl}-2,3,4,5-tetrahydro-1,4-benzoxazepin-7-yl)[1,3]thiazolo[5,4-b]pyridin-2-amine], the IC50 lay within 250 to 1000 nM.
Turning to `Cc1nc(CN(C)C)nc(N2CCOc3ccc(-c4cnc5sc(N)nc5c4)cc3C2)c1C(C)C` [Example 674, 6-(4-{2-[(dimethylamino)methyl]-6-methyl-5-(1-methylethyl)pyrimidin-4-yl}-2,3,4,5-tetrahydro-1,4-benzoxazepin-7-yl)[1,3]thiazolo[5,4-b]pyridin-2-amine], the IC50 lay in the range of 10 to 50 nM.
Take `Cc1nc2cc(-c3ccc4c(c3)CN(c3nc(CN5CCCC5)nc(C)c3C(C)C)CCO4)ccc2[nH]1` [Example 675]: the IC50 was in the range of 50 to 250 nM.
The result for `Cc1nc2cc(-c3ccc4c(c3)CN(c3nc(CF)nc5c3CC(C)(C)CC5)CCO4)ccc2[nH]1` [Example 676, 4-[2-(fluoromethyl)-6,6-dimethyl-5,6,7,8-tetrahydroquinazolin-4-yl]-7-(2-methyl-1H-benzimidazol-5-yl)-2,3,4,5-tetrahydro-1,4-benzoxazepine] reads ≤ 10 nM; that for `Cc1nc2cc(-c3ccc4c(c3)CN(c3nc(CN(C)C)nc(C)c3Cl)CCO4)ccc2[nH]1` [Example 677, 1-{5-chloro-4-methyl-6-[7-(2-methyl-1H-benzimidazol-5-yl)-2,3-dihydro-1,4-benzoxazepin-4(5H)-yl]pyrimidin-2-yl}-N,N-dimethylmethanamine], ≥ 2000 nM.
With `Cc1nc(CN(C)C)nc(N2CCOc3ccc(-c4cnc5sc(N)nc5c4)cc3C2)c1Cl` [Example 678, 6-(4-{5-chloro-2-[(dimethylamino)methyl]-6-methylpyrimidin-4-yl}-2,3,4,5-tetrahydro-1,4-benzoxazepin-7-yl)[1,3]thiazolo[5,4-b]pyridin-2-amine] the figure was 250 to 1000 nM.
Turning to `Cc1nc2cc(-c3ccc4c(c3)CN(c3nc(CNCCF)nc(C)c3C(C)C)CCO4)ccc2[nH]1` [Example 679, 2-fluoro-N-({4-methyl-6-[7-(2-methyl-1H-benzimidazol-5-yl)-2,3-dihydro-1,4-benzoxazepin-4(5H)-yl]-5-(1-methylethyl)pyrimidin-2-yl}methyl)ethanamine], the IC50 fell in the range of 10 to 50 nM.
The result for `Cc1nc(CNCCF)nc(N2CCOc3ccc(-c4cnc5sc(N)nc5c4)cc3C2)c1C(C)C` [Example 680, 6-{4-[2-{[(2-fluoroethyl)amino]methyl}-6-methyl-5-(1-methylethyl)pyrimidin-4-yl]-2,3,4,5-tetrahydro-1,4-benzoxazepin-7-yl}[1,3]thiazolo[5,4-b]pyridin-2-amine] reads ≤ 10 nM; that for `Cc1nc2cc(-c3ccc4c(c3)CN(c3nc(CN(C)C)nc(C)c3-c3ccccc3)CCO4)ccc2[nH]1` [Example 681, N,N-dimethyl-1-{4-methyl-6-[7-(2-methyl-1H-benzimidazol-5-yl)-2,3-dihydro-1,4-benzoxazepin-4(5H)-yl]-5-phenylpyrimidin-2-yl}methanamine], 50 to 250 nM.
